How the values were obtained:
Na^+ current = format: cell-based, human
TRPC6 = molecular target: T1, TRPC6 (Homo sapiens, UniProt Q9Y210); conditions: cited from earlier work
T1 sequence (Q9Y210 1-931): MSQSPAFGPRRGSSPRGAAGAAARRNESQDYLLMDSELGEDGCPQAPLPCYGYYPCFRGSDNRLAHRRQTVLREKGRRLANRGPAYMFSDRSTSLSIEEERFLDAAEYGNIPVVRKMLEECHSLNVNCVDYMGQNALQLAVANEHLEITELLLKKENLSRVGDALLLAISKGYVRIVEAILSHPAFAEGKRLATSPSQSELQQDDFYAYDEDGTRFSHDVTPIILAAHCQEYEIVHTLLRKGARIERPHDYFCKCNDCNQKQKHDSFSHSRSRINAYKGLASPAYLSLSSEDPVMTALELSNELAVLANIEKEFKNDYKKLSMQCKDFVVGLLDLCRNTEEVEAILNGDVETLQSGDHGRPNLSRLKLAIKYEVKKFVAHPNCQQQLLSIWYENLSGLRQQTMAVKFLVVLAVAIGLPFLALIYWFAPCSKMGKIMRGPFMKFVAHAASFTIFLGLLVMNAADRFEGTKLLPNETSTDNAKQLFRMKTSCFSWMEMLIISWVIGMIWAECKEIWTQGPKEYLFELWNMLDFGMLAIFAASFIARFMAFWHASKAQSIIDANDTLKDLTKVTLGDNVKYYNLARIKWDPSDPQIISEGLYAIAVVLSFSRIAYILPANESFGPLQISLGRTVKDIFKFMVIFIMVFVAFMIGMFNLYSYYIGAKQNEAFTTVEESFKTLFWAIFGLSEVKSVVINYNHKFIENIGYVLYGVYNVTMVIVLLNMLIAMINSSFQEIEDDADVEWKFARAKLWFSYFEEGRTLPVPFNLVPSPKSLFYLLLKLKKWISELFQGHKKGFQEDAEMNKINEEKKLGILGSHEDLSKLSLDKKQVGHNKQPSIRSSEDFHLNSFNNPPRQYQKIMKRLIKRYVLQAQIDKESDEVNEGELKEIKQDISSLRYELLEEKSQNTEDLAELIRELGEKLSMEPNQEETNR

TRPC6-mutant neurons = experiment: VGLUT1 puncta / glutamatergic synapse number in TRPC6-mutant neurons (rescue); format: cell-based, human; conditions: 10 ηg/mL for two weeks
Procedure: Neuronal tracing was performed on neurons for which that the shortest dendrite was at least three-times longer than the cell soma diameter, using a semi-automatic ImageJ plug-in (NeuroJ). Spines and VGLUT1 puncta were quantified after three-dimensional reconstruction of z-stack confocal images. Only neurons with spines were scored. Pictures were taken randomly for each individual and from two different experiments, using at least two different clones. Quantification was done blindly to the genotype of the cells. All experiments were performed with independent clones and different controls. For the rescue experiments, 10 ηg/mL of IGF1 (Peprotech) was added to neuronal cultures for 2 weeks.

human neurons [1] = experiment: Synapse quantification by Odyssey in-cell western in 96- or 24-well plates; format: cell-based; conditions: preliminary data
Description: Fibroblasts from patients are reprogrammed to a pluripotent state and further differentiated into neuro progenitor cells (NPCs). These NPCs can be expanded in appropriated culture conditions and, under the right signals, induced to differentiated into postmitotic neurons (see schematic; FIG. 11). Several adjustments were done on the neuronal differentiation protocol, reducing by half the time needed to generate neurons from NPCs. Such adjustments include specific factors and cell manipulations at different stages of the protocol. At this stage, disease neurons can reveal a phenotype that is related to the mutations on the MeCP2 gene. We focused on synapse quantification. Instead of manual synapse counting, we are using an Odyssey machine that can estimate the number of synapses by detecting specific wavelengths in a 96- or 24-well plates (see FIG. 11). […] Alternatively, we are using specific synaptic tools to visualize synaptogeneses in real time that could be detected by any time-lapse fluorescence microscope.

RTT-like symptoms = conditions: mouse model; cited from earlier work
human neurons [2] = conditions: cited from earlier work
K^+ current = experiment: Whole-cell patch clamp recording of K+ current in iPSC-derived neuron; format: cell-based, human; conditions: 20 mM
Procedure: Whole-cell patch clamp recordings were performed from cells cultured in the absence of astrocytes after approximately 6 weeks of differentiation. Before recordings, the growth media was removed and replaced with a bath solution comprised of (in mM): 130 NaCl, 3 KCl, 1 CaCl2, 1 MgCl2, HEPES, and 10 glucose (pH 7.4) at room temperature (22-24° C.). Electrodes for whole cell recording were pulled on a Flaming/Brown micropipette puller (Model P-87, Sutter Instrument, Novato, Calif.) from filamented borosilicate capillary glass (1.2 mm OD, 0.69 mm ID, World Precision Instruments, Sarasota, Fla.). The electrodes were fire-polished, and resistances were typically 2-5 MΩ for voltage-clamp experiments and 7-9 MΩ for current-clamp experiments. The pipette solution contained (in mM): 138 KCl, 0.2 CaCl2, 1 MgCl2, 10 HEPES (Na^+ salt), and 10 EGTA, (pH 7.4). The osmolarity of all solutions was adjusted to 290 mOsM. All chemicals were purchased from Sigma-Aldrich (St. Louis, Mo.) except MgCl2 (J.T. Baker, Phillipsburg, N.J.). Current traces in voltage clamp were leak-subtracted. Liquid junction potentials were nulled for each individual cell with the Axopatch 1C amplifier (Molecular Devises, Sunnyvale, Calif.).

NC1=N[C@H](O)[C@H]2[C@H]3O[C@]4(O)O[C@@H]([C@@H](O)[C@@]2(N1)[C@@H]4O)[C@]3(O)CO [Tetrodotoxin (TTX), Tetrodotoxin]
Na^+ current (Na^+ current): blocked

CC(C)=CCC[C@]1(C)[C@@H](CC=C(C)C)C[C@@]2(CC=C(C)C)C(=O)[C@]1(C(=O)C(C)C)C(=O)C(CC=C(C)C)=C2O [Hyperforin, hyperforin]
TRPC6 activation (TRPC6): specifically activates

O=C(O)c1ccccc1Nc1cccc(C(F)(F)F)c1 [FFA, flufenamic acid]
currents through TRPC6 channel (TRPC6): increases the amplitude

IGF-1: Insulin-like growth factor 1 (IGF-1), also referred to as somatomedin C
glutamatergic synapse number (TRPC6-mutant neurons): increase | synapse number estimate (Odyssey), response to drug (human neurons [1]): small alterations | RTT-like symptoms (RTT-like symptoms): reversal | RTT-like symptoms (human neurons [2]): reversal | synapse number (human neurons [2]): increase

CC[N+](CC)(CC)CC [tetraethalammonium (TEA), tetraethalammonium]
K^+ current (K^+ current): blocked

Reference: patent US20150119327A1, “DRUG SCREENING PLATFORM FOR RETT SYNDROME” (THE REGENTS OF THE UNIVERSITY OF CALIFORNIA, priority 2012, published 2015)
